# Results: article PMC12811501, “A plant-derived antimicrobial peptide with multiple mechanisms of action exhibiting antibacterial and antibiofilm activities comparable to or superior to polymyxin B” (Current Research in Microbial Sciences, 2025)
# Like-named read-outs stand apart in the source and are kept apart here. Residues, ends and D or L forms follow the SMILES beside them. No end group written: not given here.
# Columns and labels:
# Acinetobacter baumannii = experiment: microbe, parasite or virus in culture; assay type: cell-based; settings: A. baumannii; for MBC: 24 h of treatment in MHB (method: 1/10 MHB), detected at the end of the biofilm inhibition test, read-out: MBC, Inhibition test after 24 h
# Experimental: For the biofilm inhibition assay the antimicrobial activity test was done in 1/10 MHB using A. baumannii treated with the respective dilutions of NCR169C17–38, meropenem or polymixin B for 24 h. After taking the 5 μl samples at the end of the treatment and placed on LB agar to detect bacterial growth, the rest of the grown bacterial suspensions were discarded from the plate and the remaining biofilm on the walls of the plate was then washed three times with sterile water and stained using 1 % Crystal Violet (CV) for 15 min to visualize the produced biofilm. The non-adherent CV dye was then removed by washing with water three times. The plate was left for complete drying, then the biofilm-bound CV dye was dissolved in 200 µl of 30 % acetic-acid with shaking over 15 min. The absorbance was measured at OD550 using a HIDEX Plate Reader (Hidex Sense Microplate Reader with Plate Reader Software version 5064, Hidex, Finland). All measurements were repeated three times.
# We examined the capacity of NCR169C17–38 to inhibit biofilm formation by Acinetobacter baumannii, a pathogen well known for its robust biofilm production and high level of antibiotic resistance. […] Additionally, at the end of the experiment we determined the quantity of the biofilm and thereby evaluated their ability to inhibit biofilm formation during culturing the bacteria in the presence of different concentrations of the agents (Fig. 1.A). We tested concentrations of NCR169C17–38 ranging from 25 μM to 0.4 μM, meropenem from 100 μM to 1.6 μM and polymyxin B from 3.1 μM to 0.05 μM.
# E. coli = experiment: microbe, parasite or virus in culture; settings: for FBC-A: (MBC of Drug A in combination)/(MBC of Drug A alone), combination with NCR169C17–38 (Drug B), checkerboard; for FBC-A / FBC-B / FBC / Action / FBC-A (µM): concentration of Drug A for the indicated action / FBC-B (µM): concentration of Drug B for the indicated action: E. coli; for FBC-A / FBC-A (µM): concentration of Drug A for the indicated action: 3 h 37 °C; for FBC-B: (MBC of NCR169C17–38 in combination)/(MBC alone), value refers to NCR169C17–38 (Drug B) combined with the Drug A; for MBC: Escherichia coli, read-out: Drug A MBC; for FBC: FBC index = FBC-A + FBC-B, Drug A combined with NCR169C17–38; for Action: interaction of Drug A with NCR169C17–38 by FBC index; for FBC-A (µM): concentration of Drug A for the indicated action / FBC-B (µM): concentration of Drug B for the indicated action: value in brackets; for FBC-A (µM): concentration of Drug A for the indicated action: Drug A in combination with NCR169C17–38, checkerboard; for FBC-B (µM): concentration of Drug B for the indicated action: concentration of NCR169C17–38 (Drug B) combined with Drug A
# Experimental: Streptomycin was tested at concentrations ranging from 25 μM to 0.4 μM, meropenem from 200 μM to 3.1 μM, and polymyxin B from 6.3 μM to 0.1 μM. NCR335N1–19 was tested in a concentration range from 3.1 μM to 0.05 μM, while NCR335C13–33 from 12.5 μM to 0.2 μM. […] The initial E. coli density in each well were adjusted to OD600 = 0.01 corresponding to ∼10^6 bacteria/ml. […] The effectiveness of combination treatments was measured using the fractional bactericidal concentration (FBC) index, which is a metric used to assess the interaction between antimicrobial agents, determining whether their combined effect is synergistic, additive, or antagonistic. First, the MBC values of polymyxin B, meropenem, streptomycin, NCR335N1–19, and NCR335C13–33 were determined in E. coli. Subsequently, their combinations with NCR169C17–38 were examined using the FBC index. FBC = FBCA + FBCB. FBCA = (MBCA in combination) / (MBCA alone); FBCB = (MBCB in combination) / (MBCB alone). Experiments were done in three biological replicates.
# The use of multiple antimicrobial agents can simultaneously target different physiological pathways in microbial cells, reducing the likelihood of resistance development and increasing treatment efficacy. To explore this strategy, we assessed the combined antibacterial effects of the NCR169C17–38 peptide with several antibiotics - specifically polymyxin B, meropenem, and streptomycin - against E. coli. […] Combination treatments were then performed using the standard checkerboard titration method, with each agent co-administered with NCR169C17–38.
# [1] = tested on: Acinetobacter baumannii pre-formed biofilm; experiment: microbe, parasite or virus in culture; assay type: cell-based; settings: for degradation of pre-formed biofilm: A. baumannii biofilm pre-formed 24 h, 24 h of treatment, Crystal Violet OD550; for MBC: A. baumannii biofilm pre-formed 24 h in MHB
# Experimental: For the biofilm eradication assay the difference was at the beginning of the experiments when bacteria were pre-cultured for 24 h or 72 h in MHB with a starting OD600 = 0.01. Then bacterial suspensions were removed from the wells followed by washing three times with 200 µl of 1/2 MHB. Subsequently fresh 1/10 MHB was added to the wells containing the respective dilutions of NCR169C17–38, meropenem or polymixin B and the treatment lasted either 3 h or 24 h. Experiments were done in three biological replicates.
# To assess whether the NCR169C17–38 peptide or the tested antibiotics could eradicate pre-formed biofilms, A. baumannii was first cultured in MHB for 24 h, then treated with NCR169C17–38, meropenem or polymyxin B for either 3 h or 24 h, using the same concentration range as in the previous experiment. Both bacterial survival within the pre-formed biofilm and the amount of residual biofilm were assessed. […] In contrast, neither of the two antibiotics completely eliminated the bacteria within the tested concentration range. […] This 24 h of treatment was repeated on mature biofilm (pre-formed for 72 h) and the results were very similar (Supplementary Fig. 1.).
# [2] = assay type: physicochemical; settings: for solubility / visible turbidity upon peptide addition: pH 7.4
molecule,measurement,setting,value
C[C@@H](O)[C@H]1C(=O)N2C(C(=O)O)=C(S[C@@H]3CN[C@H](C(=O)N(C)C)C3)[C@H](C)[C@H]12 [Meropenem],"inhibition of biofilm formation (Crystal Violet, OD550)","Acinetobacter baumannii; 24 h treatment, NCR169C17–38 25-0.4 μM, meropenem 100-1.6 μM, polymyxin B 3.1-0.05 μM",remaining effective even at lower doses
same,MBC,Acinetobacter baumannii; Acinetobacter baumannii,50 µM
same,FBC-A,E. coli,0.25
same,FBC-B,E. coli,0.25
same,MBC,E. coli; 3 h,200 µM
same,FBC,E. coli,0.5
same,Action,E. coli,Synergism (< 0.5: synergism)
same,FBC-A (µM): concentration of Drug A for the indicated action,E. coli,50 µM
same,FBC-B (µM): concentration of Drug B for the indicated action,E. coli,0.4 µM
same,degradation of pre-formed biofilm,[1],successful even at sub-MBC level
same,MBC,"[1]; Acinetobacter baumannii, 3 h treatment (method: 1/10 MHB), read-out: MBC, Eradication test after 3 h",> 100 µM
same,MBC,"[1]; Acinetobacter baumannii, 24 h treatment (method: 1/10 MHB), read-out: MBC, Eradication test after 24 h",> 100 µM
CC[C@H](C)[C@H](NC(=O)CNC(=O)[C@H](CS)NC(=O)[C@H](Cc1ccc(O)cc1)NC(=O)[C@H](CCCCN)NC(=O)[C@@H](NC(=O)[C@H](Cc1c[nH]cn1)NC(=O)CNC(=O)[C@@H](NC(=O)[C@H](CC(=O)O)NC(=O)[C@@H](N)CCC(=O)O)[C@@H](C)CC)[C@@H](C)CC)C(=O)N[C@H](C(=O)N[C@@H](CC(=O)O)C(=O)N[C@@H](CC(=O)O)C(=O)N[C@@H](CS)C(=O)N[C@@H](Cc1ccc(O)cc1)C(=O)N[C@@H](CCCCN)C(=O)N[C@@H](CO)C(=O)N[C@@H](CCCCN)C(=O)N[C@@H](CCCCN)C(=O)N1CCC[C@H]1C(=O)N[C@@H](CC(C)C)C(=O)N[C@@H](Cc1ccccc1)C(=O)N[C@@H](CCCCN)C(=O)N[C@H](C(=O)N[C@@H](Cc1c[nH]c2ccccc12)C(=O)N[C@@H](CCCCN)C(=O)N[C@@H](CS)C(=O)N[C@H](C(=O)N[C@@H](CCC(=O)O)C(=O)N[C@@H](CC(N)=O)C(=O)N[C@H](C(=O)N[C@@H](CS)C(=O)N[C@H](C(=O)N[C@@H](CC(C)C)C(=O)N[C@@H](Cc1c[nH]c2ccccc12)C(=O)N[C@@H](Cc1ccc(O)cc1)C(=O)N[C@@H](CCCCN)C(N)=O)C(C)C)C(C)C)C(C)C)[C@@H](C)CC)C(C)C [NCR169] (H-EDIGHIKYCGIVDDCYKSKKPLFKIWKCVENVCVLWYK-NH2),solubility / visible turbidity,[2]; pH 5.8,eliminating visible turbidity
same,solubility / visible turbidity upon peptide addition,[2],visible white turbidity
CC[C@H](C)[C@H](NC(=O)[C@@H]1CCCN1C(=O)[C@@H](NC(=O)[C@H](CS)NC(=O)[C@H](Cc1ccc(O)cc1)NC(=O)[C@H](CO)NC(=O)[C@H](CCCCN)NC(=O)[C@H](CCCNC(=N)N)NC(=O)[C@H](CS)NC(=O)[C@H](CCCNC(=N)N)NC(=O)[C@@H](NC(=O)[C@H](CC(N)=O)NC(=O)[C@H](C)NC(=O)[C@H](CCCNC(=N)N)NC(=O)[C@H](CCCNC(=N)N)NC(=O)[C@H](CC(C)C)NC(=O)[C@H](CCCCN)NC(=O)[C@@H]1CCCN1C(=O)[C@H](CS)NC(=O)[C@H](CC(=O)O)NC(=O)[C@@H](N)CCCCN)C(C)C)C(C)C)C(N)=O [NCR335C13–33] (H-KDCPKLRRANVRCRKSYCVPI-NH2; N-terminus and C-terminus assumed),Drug A MBC,E. coli; 3 h,12.5 µM
same,FBC-A,E. coli,0.5
same,FBC-B,E. coli,0.03
same,FBC,E. coli,0.5
same,Action,E. coli,Synergism (< 0.5: synergism)
same,FBC-A (µM): concentration of Drug A for the indicated action,E. coli,6.25 µM
same,FBC-B (µM): concentration of Drug B for the indicated action,E. coli,0.048 µM
[H]/N=C(/N)N[C@H]1[C@H](O)[C@@H](O)[C@H](O[C@@H]2O[C@@H](C)[C@](O)(C=O)[C@H]2O[C@@H]2O[C@@H](CO)[C@H](O)[C@@H](O)[C@@H]2NC)[C@@H](N/C(N)=N\[H])[C@@H]1O [Streptomycin],FBC-A,E. coli,0.5
same,FBC-B,E. coli,0.5
same,MBC,E. coli; 3 h,3.12 µM
same,FBC,E. coli,1
same,Action,E. coli,Additive (0.5 < FBC < 1.0: additive)
same,FBC-B (µM): concentration of Drug B for the indicated action,E. coli,0.8 µM
"EDIGHIKYSGIVDDSYKSKKPLFKIWKSVENVSVLWYK-NH2 [NCR169-C9,15,28,33/S]",solubility / visible turbidity upon peptide addition,[2],no visible turbidity
Polymyxin B,MBC,Acinetobacter baumannii,0.8 µM
same,FBC-A,E. coli,0.125
same,FBC-B,E. coli,0.25
same,Drug A MBC,"E. coli; Drug A alone, E. coli ~10^6 bacteria/ml, MHB/PPB mixture, 3 h at 37 °C, plated on LB agar, three biological replicates",0.8 µM
same,FBC,E. coli,0.38
same,Action,E. coli,Synergism (< 0.5: synergism)
same,FBC-A (µM): concentration of Drug A for the indicated action,E. coli,0.1 µM
same,FBC-B (µM): concentration of Drug B for the indicated action,E. coli,0.4 µM
same,degradation of pre-formed biofilm,[1],required at least their MBC or higher concentrations
same,MBC,"[1]; 3 h treatment (method: 1/10 MHB), read-out: MBC, Eradication test after 3 h",>3.2 µM
same,MBC,"[1]; 24 h treatment (method: 1/10 MHB), read-out: MBC, Eradication test after 24 h",>3.2 µM
same,eradication of pre-formed biofilms at sub-MBC concentration,"[1]; A. baumannii, as stated in the abstract",not observed
RLNTTFRPLNFKMLRFWGQ-NH2 [NCR335N1–19],Drug A MBC,E. coli; 3 h,3.125 µM
same,FBC-A,E. coli,0.5
same,FBC-B,E. coli,0.01
same,FBC,E. coli,0.5
same,Action,E. coli,Synergism (< 0.5: synergism)
same,FBC-A (µM): concentration of Drug A for the indicated action,E. coli,1.6 µM
